The data set has as its system PDE10A. The following applies: monkey, PET. How it is done:
The monkey is sedated with ketamin (approximately 10 mg/kg), weighed, and maintained on a constant infusion of ketamin 15 mg/kg/h during transport. During transport the monkey is monitored by pulse oximetry and supported by oxygen. One venous catheter is applied for tracer administration and one venous catheter for blood radioactivity and PK sampling. Propofol is administered until the animal is anesthetized enough to intubate. After intubation the animal is maintained on sevoflurane inhalation anesthesia and artificial ventilation.
Blood samples (0.2 mL for radioactivity determination are taken at 0.5, 1, 3, 5, 10, 15, 20, 30, 45, 60 and 90 minutes after injection. The samples are labeled with time, date, sampling time in relation to injection, and project number.
PET scanning and arterial blood sampling is commenced upon start of the administration of the radiolabelled compound.

`Cc1ccc(C)n2nc(CCc3nc(-c4ccccc4)cn3[11CH3])nc12` [[11C]Lu AE92686, 5,8-dimethyl-2-[2-([^11C-1-methyl]-4-phenyl-1H-imidazol-2-yl)-ethyl]-[1,2,4]triazolo[1,5-a]pyridine]: under “cerebellum (very low level of PDE10A)”, the concentration in cerebellum entry is listed as “low”. Besides, the “uptake and retention in striatum” value (striatum versus other brain regions) is “highest uptake and retention”. For the same molecule, the brain entry result (i.v. bolus) is “readily enters the brain”. Where the note is “i.v. bolus, post injection”, the “time of peak regional tissue concentrations in brain” value fell in the range of 10 to 15 min.

Values taken from patent US8592449B1, “Radiolabelled phenylimidazole-based ligands” (H. Lundbeck A/S, priority 2010, dated 2013).
